Test results reported in US20120184556A1, “SUBSTITUTED ENZOIMIDAZOLESULFONAMIDES AND SUBSTITUTED INDOLESULFONAMIDES AS MGLUR4 POTENTIATORS” (priority 2009, published 2012).

Biological target: T1, human mGluR4 (Homo sapiens, UniProt Q14833)
T1 construct: expressed in transfected cells; host or cells: Chinese Hamster Ovary (CHO) cells
Experiment: human mGluR4 potentiation assay, CHO cells, Fluo-4 calcium fluorescence, agonist EC20
Type: cell-based
Conditions: for Emax: CHO, maximum extent of potentiation, human mGluR4, read-out: GluMax; for EC50: potentiation of human mGluR4 response to EC20 agonist, read-out: hEC50
Procedure: The disclosed compounds and compositions can be evaluated for their ability to act as a potentiator of metabotropic glutamate receptor activity, in particular mGluR4 activity, by any suitable known methodology known in the art. For example, Chinese Hamster Ovary (CHO) cells transfected with human mGluR4 or HEK cells co-transfected with rat mGluR4 and the G-protein regulated Inwardly Rectifying Potassium channel (GIRK) were plated in clear bottom assay plates for assay in a Hamamatsu FDSS Fluorometric Plate Reader. The cells were loaded with either the Ca2+-sensitive fluorescent dye Fluo-4 or the thallium responsive dye BTC, AM and the plates were washed and placed into a suitable kinetic plate reader. For human mGluR4 assays, a fluorescence baseline was established for 3-5 seconds, the disclosed compounds were then added to the cells, and the response in cells was measured. Approximately two and a half minutes later, a concentration of mGluR4 agonist (e.g. glutamate or L-AP4) eliciting approximately 20% (EC20) of the maximal agonist response was added to the cells, and the response was measured. Two minutes later, a concentration of mGluR4 agonist (e.g. glutamate or L-AP4) eliciting 80% (EC80) of the maximal agonist response was added to the cells, and the response was measured. For rat mGluR4/GIRK experiments, a baseline was established for approximately five seconds, disclosed compounds were added, and either an EC20 or EC80 concentration of agonist was added approximately two and one half minutes later. Potentiation of the agonist response of mGluR4 by the disclosed compounds was observed as an increase in response to the EC20 concentration of agonist in the presence of compound compared to the response to agonist in the absence of compound. Similarly, antagonism of the agonist response of mGluR4 by the disclosed compounds was observed as a decrease in response to the EC80 concentration of agonist in the presence of compound compared to the response to agonist in the absence of compound.
The above described assay operated in two modes. In the first mode, a range of concentrations of the disclosed compounds are added to cells, followed by a single fixed concentration of agonist. If the compound acts as a potentiatior, an EC50 value for potentiation and a maximum extent of potentiation by the compound at this concentration of agonist is determined by non-linear curve fitting. If the compound acts as a noncompetitive antagonist, an IC50 value is determined by non-linear curve fitting. In the second mode, several fixed concentrations of the disclosed compounds are added to various wells on a plate, followed by a range in concentrations of agonist for each concentration of disclosed compound. The EC50 values for the agonist at each concentration of compound are determined by non-linear curve fitting. A decrease in the EC50 value of the agonist with increasing concentrations of the sample compound (a leftward shift of the agonist concentration-response curve) is an indication of the degree of mGluR4 potentiation at a given concentration of the sample compound. A decrease in the maximal response of the agonist with increasing concentrations of the sample compounds, with or without a rightward shift in agonist potency, is an indication of the degree of noncompetitive antagonism at mGluR4. The second mode also indicates whether the sample compounds also affect the maximum response to mGluR4 to agonists.

T1 sequence (Q14833 33-912): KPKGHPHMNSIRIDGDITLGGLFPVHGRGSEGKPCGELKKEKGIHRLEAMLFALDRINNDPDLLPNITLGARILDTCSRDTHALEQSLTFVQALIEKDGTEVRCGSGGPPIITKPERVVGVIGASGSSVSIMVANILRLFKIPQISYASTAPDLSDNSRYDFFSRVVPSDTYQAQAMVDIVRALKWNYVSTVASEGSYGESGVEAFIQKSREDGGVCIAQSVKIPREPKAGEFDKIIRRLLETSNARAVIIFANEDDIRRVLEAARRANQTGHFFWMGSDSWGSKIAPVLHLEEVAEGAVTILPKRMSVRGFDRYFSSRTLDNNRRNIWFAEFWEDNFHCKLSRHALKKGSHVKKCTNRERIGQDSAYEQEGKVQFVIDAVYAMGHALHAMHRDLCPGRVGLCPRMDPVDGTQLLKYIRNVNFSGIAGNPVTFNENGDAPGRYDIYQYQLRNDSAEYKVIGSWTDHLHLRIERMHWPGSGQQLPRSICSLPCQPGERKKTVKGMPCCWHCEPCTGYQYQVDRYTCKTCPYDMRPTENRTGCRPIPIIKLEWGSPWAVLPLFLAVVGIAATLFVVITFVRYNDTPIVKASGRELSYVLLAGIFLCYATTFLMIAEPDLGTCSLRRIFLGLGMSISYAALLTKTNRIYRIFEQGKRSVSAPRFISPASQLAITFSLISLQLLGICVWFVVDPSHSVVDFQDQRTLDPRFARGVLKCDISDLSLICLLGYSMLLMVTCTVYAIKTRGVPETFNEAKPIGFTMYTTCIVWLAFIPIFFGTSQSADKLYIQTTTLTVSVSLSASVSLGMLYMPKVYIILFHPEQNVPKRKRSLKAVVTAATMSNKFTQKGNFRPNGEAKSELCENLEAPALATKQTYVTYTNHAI

Row | Emax [%] | EC50 [nM] | Compound
1 | 246 | 186 | O=S(=O)(Nc1ccccc1F)c1ccc2[nH]c(-c3ccccn3)nc2c1 [Example 33, N-(2-fluorophenyl)-2-(pyridin-2-yl)-1H-benzo[d]imidazole-5-sulfonamide]
2 | 149 | 1100 | O=S(=O)(Nc1ccccc1Cl)c1ccc2[nH]c(-c3cc(Br)no3)nc2c1 [Example 34, 2-(3-bromoisoxazol-5-yl)-N-(2-chlorophenyl)-1H-benzo[d]imidazole-5-sulfonamide]
3 | 87 | 1980 | Cc1cc(-c2nc3cc(S(=O)(=O)Nc4ccccc4Cl)ccc3[nH]2)on1 [Example 35, N-(2-chlorophenyl)-2-(3-methylisoxazol-5-yl)-1H-benzo[d]imidazole-5-sulfonamide]
4 | 73 | 296 | O=S(=O)(Nc1ccc(F)cc1F)c1ccc2[nH]c(-c3ccccc3)nc2c1 [Example 36, N-(2,4-difluorophenyl)-2-phenyl-1H-benzo[d]imidazole-5-sulfonamide]
5 | 118 | 5490 | O=S(=O)(Nc1ccccc1F)c1ccc2[nH]c(-c3cnccn3)nc2c1 [Example 37, N-(2-fluorophenyl)-2-(pyrazin-2-yl)-1H-benzo[d]imidazole-5-sulfonamide]
6 | 42 | 369 | O=S(=O)(Nc1ccccc1F)c1ccc2[nH]c(-c3ccsc3)nc2c1 [Example 38, N-(2-fluorophenyl)-2-(thiophen-3-yl)-1H-benzo[d]imidazole-5-sulfonamide]
7 | 156 | 4820 | O=S(=O)(Nc1ccccc1F)c1ccc2[nH]c(-c3ccncn3)nc2c1 [Example 39, N-(2-fluorophenyl)-2-(pyrimidin-4-yl)-1H-benzo[d]imidazole-5-sulfonamide]
8 | 222 | 756 | O=S(=O)(Nc1ccccc1F)c1ccc2[nH]c(-c3nccs3)nc2c1 [Example 40, N-(2-fluorophenyl)-2-(thiazol-2-yl)-1H-benzo[d]imidazole-5-sulfonamide]
9 | 83 | 9470 | Cn1ccnc1-c1nc2cc(S(=O)(=O)Nc3ccccc3Cl)ccc2[nH]1 [Example 41, N-(2-chlorophenyl)-2-(1-methyl-1H-imidazol-2-yl)-1H-benzo[d]imidazole-5-sulfonamide]
10 | 50 | 226 | O=S(=O)(Nc1ccc(F)cc1F)c1ccc2[nH]c(-c3ccsc3)nc2c1 [Example 42, N-(2,4-difluorophenyl)-2-(thiophen-3-yl)-1H-benzo[d]imidazole-5-sulfonamide]
11 | 69 | 2830 | O=S(=O)(Nc1ccccc1Cl)c1ccc2[nH]c(-c3ccno3)nc2c1 [Example 43, N-(2-chlorophenyl)-2-(isoxazol-5-yl)-1H-benzo[d]imidazole-5-sulfonamide]
12 | 36 | 13400 | Cc1nc[nH]c1-c1nc2cc(S(=O)(=O)Nc3ccccc3Cl)ccc2[nH]1 [Example 44, N-(2-chlorophenyl)-2-(4-methyl-1H-imidazol-5-yl)-1H-benzo[d]imidazole-5-sulfonamide]
13 | 104 | 7450 | CC1CCN(S(=O)(=O)c2ccc3[nH]c(-c4ccccn4)nc3c2)CC1 [Example 45, 5-((4-methylpiperidin-1-yl)sulfonyl)-2-(pyridin-2-yl)-1H-benzo[d]imidazole]
14 | 112 | 2350 | O=S(=O)(Nc1ccccc1Cl)c1ccc2[nH]c(C3CCCCO3)nc2c1 (stereo not shown) [Example 46, N-(2-chlorophenyl)-2-(tetrahydro-2H-pyran-2-yl)-1H-benzo[d]imidazole-5-sulfonamide]
15 | 147 | 709 | O=S(=O)(Nc1ccc(F)cc1F)c1ccc2[nH]c(-c3nccs3)nc2c1 [Example 47, N-(2,4-difluorophenyl)-2-(thiazol-2-yl)-1H-benzo[d]imidazole-5-sulfonamide]
16 | 85 | 313 | CCc1ccc(NS(=O)(=O)c2ccc3[nH]c(-c4ccsc4)nc3c2)cc1 [Example 48, N-(4-ethylphenyl)-2-(thiophen-3-yl)-1H-benzo[d]imidazole-5-sulfonamide]
17 | 61 | 1110 | CN(c1ccccc1F)S(=O)(=O)c1ccc2[nH]c(-c3ccccn3)nc2c1 [Example 50, N-(2-fluorophenyl)-N-methyl-2-(pyridin-2-yl)-1H-benzo[d]imidazole-5-sulfonamide]
18 | 252 | 99 | O=S(=O)(Nc1ccc(F)cc1F)c1ccc2[nH]c(-c3ccccn3)nc2c1 [Example 51, N-(2,4-difluorophenyl)-2-(pyridin-2-yl)-1H-benzo[d]imidazole-5-sulfonamide]
19 | 226 | 140 | O=S(=O)(Nc1ccc(F)cc1F)c1ccc2[nH]c(-c3cccc(F)n3)nc2c1 [Example 52, N-(2,4-difluorophenyl)-2-(6-fluoropyridin-2-yl)-1H-benzo[d]imidazole-5-sulfonamide]
20 | 59 | > 10000 | CN1CCCCC1c1nc2cc(S(=O)(=O)Nc3ccccc3Cl)ccc2[nH]1 (stereo not shown) [Example 53, N-(2-chlorophenyl)-2-(1-methylpiperidin-2-yl)-1H-benzo[d]imidazole-5-sulfonamide]
